Here are results for five compounds from patent US8026257B2 (Bristol-Myers Squibb Company, priority 2007, dated 2011).

For assay [1] the following is noted: background statement, literature reports; cited from earlier work.
Another assay addresses hSERT (Homo sapiens, UniProt P31645). As to the kind of experiment: SERT radioligand binding assay ([125I]RTI-55, HEK-hSERT membranes). The note with it: HEK-293 hSERT membranes, 260 pM [125I]RTI-55, 1 hour at room temperature; read-out: SERT IC50. An outline of the steps: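 IC50 values derive from four-parameter fits of triplicate percent-inhibition curves, with DMSO as 0% and fluoxetine as 100%. Binding used [125I]RTI-55 at its Kd (520 pM 2× solution) and HEK-hSERT membranes (15 ug/ml 2×) in Tris/NaCl/KCl, pH 7.5, 1 hour, room temperature. Filter-bound radioactivity was counted.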

A further assay addresses T1, NK-1 (Homo sapiens, UniProt P25103).
T1 construct: 30 ul/well of a 2×U373 membrane preparation
As to the kind of experiment: NK1 radioligand binding assay ([125I]Substance P, U373 membranes). The note with it: U373 cell membranes, 200 pM [125I]Substance P, 1 hour at room temperature. The essentials: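 Displacement of Kd-level [125I]Substance P (400 pM 2× stock) from U373 membranes in pH 7.5 Tris-Cl/MgCl2 buffer with protease inhibitors, 1 h, room temperature. Filtration onto GF/B, then scintillation counting. Percent inhibition, referenced to DMSO and L-733,060 wells, fitted by four-parameter equation to give IC50; triplicate plates.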

T1 sequence (P25103 whole entry): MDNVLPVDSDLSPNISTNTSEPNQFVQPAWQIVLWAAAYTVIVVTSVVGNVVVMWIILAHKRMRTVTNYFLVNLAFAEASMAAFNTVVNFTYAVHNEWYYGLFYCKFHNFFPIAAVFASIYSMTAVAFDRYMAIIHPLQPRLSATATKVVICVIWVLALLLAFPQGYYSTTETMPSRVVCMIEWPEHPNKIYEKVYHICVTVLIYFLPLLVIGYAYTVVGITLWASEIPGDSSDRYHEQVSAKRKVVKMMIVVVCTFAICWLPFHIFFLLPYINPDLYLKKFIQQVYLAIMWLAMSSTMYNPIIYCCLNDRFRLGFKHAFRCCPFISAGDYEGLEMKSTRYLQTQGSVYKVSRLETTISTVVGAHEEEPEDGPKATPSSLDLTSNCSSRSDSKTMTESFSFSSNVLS
Sequence of hSERT (P31645 whole entry): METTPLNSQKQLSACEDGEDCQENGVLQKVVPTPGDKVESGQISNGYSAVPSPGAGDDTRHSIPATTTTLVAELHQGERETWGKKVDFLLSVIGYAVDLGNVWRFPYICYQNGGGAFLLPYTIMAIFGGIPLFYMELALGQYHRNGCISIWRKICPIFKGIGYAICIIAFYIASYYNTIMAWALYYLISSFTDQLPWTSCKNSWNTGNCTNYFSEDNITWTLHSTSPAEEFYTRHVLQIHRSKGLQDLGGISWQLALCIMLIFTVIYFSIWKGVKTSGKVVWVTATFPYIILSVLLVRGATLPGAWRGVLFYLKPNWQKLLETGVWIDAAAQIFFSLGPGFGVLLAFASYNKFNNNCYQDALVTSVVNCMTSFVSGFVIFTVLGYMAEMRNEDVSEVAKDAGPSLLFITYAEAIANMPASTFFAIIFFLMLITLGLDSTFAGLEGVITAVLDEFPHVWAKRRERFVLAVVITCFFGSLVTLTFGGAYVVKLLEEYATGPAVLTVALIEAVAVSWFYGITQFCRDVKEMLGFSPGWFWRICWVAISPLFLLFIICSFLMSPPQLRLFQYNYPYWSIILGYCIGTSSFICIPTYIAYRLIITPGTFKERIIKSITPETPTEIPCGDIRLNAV

On to `COc1ccc(OC(F)(F)F)cc1CN[C@H]1CCCN[C@H]1c1ccccc1` [CP-122,721], for which the antidepressant activity entry in assay [1] is “Robust antidepressant activity”.

As for `Cc1cn(C)c2c(C(C)OCC3(c4ccc(F)cc4)CCN(C)CC3)cc(C(F)(F)F)cc12` (centres unmarked) [Example 125, 7-(1-((4-(4-fluorophenyl)-1-methylpiperidin-4-yl)methoxy)ethyl)-1,3-dimethyl-5-(trifluoromethyl)-1H-indole], the half-maximal inhibitory concentration (IC50) at hSERT and at NK-1 was 0.01 to 100 nM each time.

In the case of `CN1CCC(COCc2cc(Br)cc3ncn(CC4CC4)c23)(c2ccccc2)CC1` [Example 132], the concentration for half-maximal inhibition (IC50) at hSERT and on NK-1 was 0.01 to 100 nM throughout.

Consider `CCn1cnc2c([C@@H](C)OCC3(c4ccccc4)CCN(C)CC3)cc(C(F)(F)F)cc21` [Example 138, (R)-1-ethyl-4-(1-((1-methyl-4-phenylpiperidin-4-yl)methoxy)ethyl)-6-(trifluoromethyl)-1H-benzo[d]imidazole], for which the IC50 at hSERT and on NK-1 was 0.01 to 100 nM in each case.

Regarding `C[C@@H](O[C@H]1OCCN(Cc2n[nH]c(=O)[nH]2)[C@H]1c1ccc(F)cc1)c1cc(C(F)(F)F)cc(C(F)(F)F)c1` [MK-869], in assay [1], the antidepressant activity entry is “Robust antidepressant activity”.
